Source: patent publication US20010044445A1, “AZOLE INHIBITORS OF CYTOKINE PRODUCTION” (priority 1999, published 2001)

How the values were obtained:
[1] = test system: Human peripheral blood mononuclear cells; assay: Human Concanavalin-A Proliferation Assay (Con HU Assay); assay type: cell-based; conditions: Homo sapiens, PBMC, concanavalin-A stimulated human PBMC; for inhibition at 1 µM / inhibition at 100 µM / inhibition at 10 µM: 72 h, 3 days, read-out: % Inhibition of proliferation (at concentrations of 1,10, or 100 μm); for inhibition at 1 µM: concentration 1 μm (in parentheses in the cell); for inhibition at 100 µM: concentration 100 μm (in parentheses in the cell); for IC50: tritiated thymidine; for inhibition at 10 µM: concentration 10 μm (in parentheses in the cell)
How it was run: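 Proliferation read as tritiated thymidine uptake (0.5 μCi/well, 6 h pulse on day 3) in human PBMC cultured 3 days with 2.5 μg/ml (final) concanavalin-A. Cells, 50,000 per well in supplemented RPMI 1640 with 10% FBS, received compound 15 min before mitogen.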

Row | melting point [°C] | Structure (SMILES) | inhibition at 1 µM [1] [%] | inhibition at 100 µM [1] [%] | IC50 [1] [nM] | inhibition at 10 µM [1] [%]
1 | 206 to 208 | N#Cc1cccc(C(=O)Nc2ccc(-n3nc(C(F)(F)F)cc3C(F)(F)F)nc2)c1 [Example 261, N-[2-[3,5-bis(trifluoromethyl)-1H-pyrazol-1-yl]-5-pyridinyl]-3-cyanobenzamide] | 37 | – | – | –
2 | 167 to 168 | COc1cc(C(F)(F)F)nn1-c1ccc(NC(=O)c2ccccc2F)cc1 [Example 313, 2-fluoro-N-(4-(5-methoxy-3-(trifluoromethyl)-1H-pyrazol-1-yl)phenyl)benzamide] | – | – | 66 | –
3 | 145 to 146 | Cc1noc(C)c1C(=O)Nc1ccc(-n2nc(C(F)(F)F)cc2C(F)(F)F)cc1C(F)(F)F [Example 278, N-[4-[3,5-bis(trifluoromethyl)-1H-pyrazol-1-yl]-2-(trifluoromethyl)phenyl]-3,5-dimethyl-4-isoxazolecarboxamide] | 4 | – | – | –
4 | 65 to 67 | O=C(Nc1ccc(-n2nc(C(F)(F)F)cc2C(F)(F)F)c(C(F)(F)F)c1)c1ccc(Cl)cc1 [Example 271, N-[4-[3,5-bis(trifluoromethyl)-1H-pyrazol-1-yl]-3-(trifluoromethyl)phenyl]-4-chlorobenzamide] | 14 | – | – | –
5 | 145 to 146 | N#Cc1cc(C(F)(F)F)nn1-c1ccc(NC(=O)c2ccncc2)cc1 [Example 303, N-(4-(5-cyano-3-(trifluoromethyl)-1H-pyrazol-1-yl)phenyl)isonicotinamide] | – | – | 487 | –
6 | 239 to 240 | O=C(Nc1ccc(-n2nc(C(F)(F)F)cc2C(F)(F)F)cc1)c1ccsc1 [Example 239, N-[4-[3,5-bis(trifluoromethyl)-1H-pyrazol-1-yl]phenyl]-3-thiophenecarboxamide] | – | – | – | 55
7 | 119 to 120 | COc1c(C(=O)Nc2ccc(-n3nc(C(F)(F)F)cc3C(F)(F)F)cc2)csc1Cl [Example 267, N-[4-[3,5-bis(trifluoromethyl)-1H-pyrazol-1-yl]phenyl]-5-chloro-4-methoxy-3-thiophenecarboxamide] | 38 | – | – | –
8 | 202 to 204 | O=C(Nc1ccc(-n2nc(C(F)(F)F)cc2C(F)(F)F)cc1)c1ccno1 [Example 240, N-[4-[3,5-bis(trifluoromethyl)-1H-pyrazol-1-yl]phenyl]-5-isoxazolecarboxamide] | – | – | 507 | 84
9 | 109 to 112 | O=C(Nc1ccc(-n2nc(C(F)(F)F)cc2Br)cc1)c1cccc(F)c1F [Example 348, N-(4-(5-bromo-3-(trifluoromethyl)-1H-pyrazol-1-yl)phenyl)-2,3-difluorobenzamide] | – | – | 114 | –
10 | 183 to 184 | O=C(Nc1ccc(-n2nc(C(F)(F)F)cc2C(F)(F)F)cc1)c1ccnc(Cl)c1 [Example 245, N-[4-[3,5-bis(trifluoromethyl)-1H-pyrazol-1-yl]phenyl]-2-chloro-4-pyridinecarboxamide] | – | 100 | 279 | –
11 | 119 to 121 | COc1cc(-n2nc(C(F)(F)F)cc2C(F)(F)F)ccc1NC(=O)c1snnc1C [Example 280, N-[4-[3,5-bis(trifluoromethyl)-1H-pyrazol-1-yl]-2-methoxyphenyl]-4-methyl-1,2,3-thiadiazole-5-carboxamide] | – | – | – | 16
12 | 188 to 189 | CC(=O)c1cc(C(F)(F)F)nn1-c1ccc(NC(=O)c2cccnc2F)cc1 [Example 315, N-(4-(5-acetyl-3-(trifluoromethyl)-1H-pyrazol-1-yl)phenyl)-2-fluoronicotinamide] | – | – | 320 | –

The remaining lines, values behind:

Row | Structure (SMILES) | melting point [°C] | inhibition at 1 µM [1] [%] | inhibition at 100 µM [1] [%] | IC50 [1] [nM] | inhibition at 10 µM [1] [%]
13 | Cc1ccccc1C(=O)Nc1ccc(-n2nc(C(F)(F)F)cc2C(F)(F)F)cc1 [Example 96, N-[4-[3,5-bis(trifluoromethyl)-1H-pyrazol-1-yl]phenyl]-2-methylbenzamide] | 165 to 167 | – | 99 | 338 | –
14 | COc1cccc(C(=O)Nc2ccc(-n3nc(C(F)(F)F)cc3C(F)(F)F)cc2)c1 [Example 145, N-[4-[3,5-bis(trifluoromethyl)-1H-pyrazol-1-yl]phenyl]-3-methoxybenzamide] | 169 to 172 | – | 94 | 1590 | –
15 | NC(=O)c1ccc(C(=O)Nc2ccc(-n3nc(C(F)(F)F)cc3C(F)(F)F)cc2)cc1 [Example 133, N-[4-[3,5-bis(trifluoromethyl)-1H-pyrazol-1-yl]phenyl]-1,4-benzenedicarboxamide] | 290 to 291 | – | – | 315 | 97
16 | O=C(Nc1ccc(-n2nc(C(F)(F)F)cc2C(F)(F)F)cc1)c1c(F)ccc([N+](=O)[O-])c1F [Example 230, N-[4-[3,5-bis(trifluoromethyl)-1H-pyrazol-1-yl]phenyl]-2,6-difluoro-3-nitrobenzamide] | 187 to 189 | 64 | – | – | –
17 | CCCCCc1ccc(C(=O)Nc2ccc(-n3nc(C(F)(F)F)cc3C(F)(F)F)cc2)c(=O)o1 [Example 4, N-[4-[3,5-bis(trifluoromethyl)-1H-pyrazol-1-yl]phenyl]-2-oxo-6-pentyl-2H-pyran-3-carboxamide] | 140 to 141 | – | 82 | 28800 | –
18 | O=C(Nc1ccc(-n2nc(C(F)(F)F)cc2C(F)(F)F)cc1)c1cccnc1F [Example 164, N-[4-[3,5-bis(trifluoromethyl)-1H-pyrazol-1-yl]phenyl]-2-fluoro-3-pyridinecarboxamide] | 110 to 112 | – | – | 39 | 99
19 | CSCCC(=O)Nc1ccc(-n2nc(C(F)(F)F)cc2C(F)(F)F)cc1 [Example 65, N-[4-[3,5-bis(trifluoromethyl)-1H-pyrazol-1-yl]phenyl]-3-(methylthio)propanamide] | 122 to 123 | – | 98 | 1820 | –
20 | Cc1nc(C)n(-c2ccc(NC(=O)c3c(C)noc3C)cc2)n1 [Example 189, 3,5-dimethyl-N-[4-(3,5-dimethyl-1H-1,2,4-triazol-1-yl)phenyl]-4-isoxazolecarboxamide] | 170 to 171 | 24 | – | – | –
21 | O=C(Nc1ccc(-n2nc(C(F)(F)F)cc2C(F)(F)F)cc1)c1ccccc1C(F)(F)F [Example 127, N-[4-[3,5-bis(trifluoromethyl)-1H-pyrazol-1-yl]phenyl]-2-(trifluoromethyl)benzamide] | 133 to 135 | – | 100 | 487 | –
22 | CC(=O)c1ccc(NC(=O)Nc2ccc(-n3nc(C(F)(F)F)cc3C(F)(F)F)cc2)cc1 [Example 42, N-(4-acetylphenyl)-N′-[4-[3,5-bis(trifluoromethyl)-1H-pyrazol-1-yl]phenyl]urea] | 230 to 231 | 9 | – | – | –
23 | O=C(Nc1ccc(-n2nc(C(F)(F)F)cc2C(F)(F)F)cc1)c1ccccc1Oc1ccccc1 [Example 57, N-[4-[3,5-bis(trifluoromethyl)-1H-pyrazol-1-yl]phenyl]-2-phenoxybenzamide] | 108 to 109 | 5 | – | – | –
24 | O=C(Nc1ccc(-n2nc(C(F)(F)F)cc2C(F)(F)F)cc1)c1ccoc1 [Example 14, N-[4-[3,5-bis(trifluoromethyl)-1H-pyrazol-1-yl]phenyl]-3-furancarboxamide] | 206 to 207 | – | 97 | 538 | –
25 | O=C(Nc1ccc(-n2nc(C(F)(F)F)cc2C(F)(F)F)cc1)c1cc(F)c(Cl)cc1F [Example 225, N-[4-[3,5-bis(trifluoromethyl)-1H-pyrazol-1-yl]phenyl]-4-chloro-2,5-difluorobenzamide] | 160 to 162 | – | – | 154 | 98
26 | O=C(Nc1ccc(-n2nc(C(F)(F)F)cc2C(F)(F)F)cc1)c1cccnc1Cl [Example 150, N-[4-[3,5-bis(trifluoromethyl)-1H-pyrazol-1-yl]phenyl]-2-chloro-3-pyridinecarboxamide] | 145 to 147 | – | 100 | 244 | –
27 | CC1(C(=O)Nc2ccc(-n3nc(C(F)(F)F)cc3C(F)(F)F)cc2)CC1 [Example 35, N-[4-[3,5-bis(trifluoromethyl)-1H-pyrazol-1-yl]phenyl]-1-methylcyclopropanecarboxamide] | 109 to 110 | 65 | – | – | –
28 | COc1ccccc1C(=O)Nc1ccc(-n2nc(C(F)(F)F)cc2C(F)(F)F)cc1 [Example 143, N-[4-[3,5-bis(trifluoromethyl)-1H-pyrazol-1-yl]phenyl]-2-methoxybenzamide] | 100 to 102 | – | 100 | 1680 | –
29 | O=C(Nc1ccc(-n2nc(C(F)(F)F)cc2C(F)(F)F)cc1)c1ccc(-n2cccc2)cc1 [Example 46, N-[4-[3,5-bis(trifluoromethyl)-1H-pyrazol-1-yl]phenyl]-4-(1H-pyrrol-1-yl)benzamide] | 249 to 252 | 10 | – | – | –
30 | O=C(O)c1ccc(C(=O)Nc2ccc(-n3nc(C(F)(F)F)cc3C(F)(F)F)cc2)cc1 [Example 157, 4-[[[4-[3,5-bis(trifluoromethyl)-1H-pyrazol-1-yl]phenyl]amino]carbonyl]benzoic acid] | 282 to 283 | – | – | 6760 | 42
